Experimental findings from patent US7776862B2, “Pyridyl and phenyl substituted piperazine-piperidines with CXCR3 antagonist activity” (Schering Corporation, priority 2005, dated 2010) are described below.

In general, IC50 refers to the midpoint of a concentration-inhibition curve.

The assay deals with T1, human CXCR3 (N-delta 4) (Homo sapiens, UniProt P49682).
T1 construct: CD8 leader; Flag tag; expressed in transfected cells; membranes used
T1 sequence (P49682 5-368 limits assumed): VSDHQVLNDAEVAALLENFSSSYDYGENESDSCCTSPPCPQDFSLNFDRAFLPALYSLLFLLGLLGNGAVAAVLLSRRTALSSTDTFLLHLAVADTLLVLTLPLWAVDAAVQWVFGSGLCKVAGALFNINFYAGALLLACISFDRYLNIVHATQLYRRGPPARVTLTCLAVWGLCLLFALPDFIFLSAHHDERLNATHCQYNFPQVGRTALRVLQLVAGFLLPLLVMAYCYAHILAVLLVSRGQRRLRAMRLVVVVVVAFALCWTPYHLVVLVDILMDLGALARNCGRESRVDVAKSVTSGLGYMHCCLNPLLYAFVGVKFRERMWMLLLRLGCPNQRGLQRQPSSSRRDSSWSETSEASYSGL
The assay is described as follows: Human CXCR3 (N-delta 4) scintillation proximity assay (SPA), [125I] IP-10 binding. Particulars: IC50 rating; Ba/F3-hCXCR3 (N-delta 4) membranes, 25 pM [125I] IP-10. A digest of the protocol: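 Membranes from mouse Ba/F3 pro-B cells stably expressing Flag-tagged human CXCR3 (N-delta 4) were coupled to SPA beads. IP-10 was added together with titrated compounds to start the reaction, and bound radioligand was read by scintillation proximity.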
Background: In a scintillation proximity assay essentially only radioactivity close to the scintillant gives light.
In turn, `CCCCNC(=O)c1cnc(N2CCN(C3CCN(Cc4ccc(Cl)cc4)CC3)CC2)c(Cl)c1` [compound 177] had an IC50 of more than 100 nM.
For `O=C(NCC(c1ccccc1)c1ccccc1)c1cnc(N2CCN(C3CCN(Cc4ccc(Cl)cc4)CC3)CC2)c(Br)c1` [compound 178], the IC50 was more than 100 nM.
Molecule `CC1(C)C2CCC(CNC(=O)c3cnc(N4CCN(C5CCN(Cc6ccc(Cl)cc6)CC5)CC4)c(Br)c3)C1C2` (stereo not shown) [compound 179] showed an IC50 of more than 100 nM.
`CC(C)NC(=O)c1cnc(N2CCN(C3CCN(Cc4ccc(Cl)cc4)CC3)CC2)c(Cl)c1` [compound 180] gave an IC50 of more than 100 nM.
The molecule `CC(C)CNC(=O)c1cnc(N2CCN(C3CCN(Cc4ccc(Cl)cc4)CC3)CC2)c(Cl)c1` [compound 181] yielded an IC50 of more than 100 nM.
To `O=C(NCc1ccc(F)c(F)c1)c1cnc(N2CCN(C3CCN(Cc4ccc(Cl)cc4)CC3)CC2)c(I)c1` [compound 182] belongs less than 25 nM; to `Cc1ccc(CN2CCC(N3CCN(c4ncc(C(=O)NCc5ccc(Cl)c(Cl)c5)cc4Cl)CC3)CC2)cc1` [compound 183], more than 100 nM; to `O=C(NCC1CCCCC1)c1cnc(N2CCN(C3CCN(Cc4ccc(Cl)cc4)CC3)CC2)c(Cl)c1` [compound 184], 25 to 100 nM.
Regarding `CC1CN(c2ncc(C(=O)NCc3ccc(Cl)c(Cl)c3)cc2Cl)CCN1C1CCN(Cc2ccc(Cl)cc2)CC1` (stereo not shown) [compound 185], the IC50 is less than 25 nM.
In turn, `CC1CN(c2ncc(C(=O)NCc3ccc(Cl)c(Cl)c3)cc2Cl)CCN1C1CCN(Cc2ccc([N+](=O)[O-])cc2)CC1` (stereo not shown) [compound 186] returned an IC50 of less than 25 nM.
For `CC1CN(c2ncc(C(=O)NCc3ccc(F)c(F)c3)cc2Cl)CCN1C1CCN(Cc2ccc([N+](=O)[O-])cc2)CC1` (stereo not shown) [compound 187], the concentration for half-maximal inhibition (IC50) was less than 25 nM.
As to `CC1CN(c2ncc(C(=O)NCc3ccc(F)c(F)c3)cc2Cl)CCN1C1CCN(Cc2ccc(Cl)cc2)CC1` (stereo not shown) [compound 188], the IC50 lay within 25 to 100 nM.
To `O=C(NC1CCCC1)c1cnc(N2CCN(C3CCN(Cc4ccc(Cl)cc4)CC3)CC2)c(Br)c1` [compound 189] belongs more than 100 nM; to `N#Cc1ccc(CN2CCC(N3CCN(c4ncc(C(=O)NC5CCCC5)cc4Cl)CC3)CC2)cc1` [compound 190], more than 100 nM; to `O=C(NC1CCCCC1)c1cnc(N2CCN(C3CCN(Cc4ccc(Cl)cc4)CC3)CC2)c(Cl)c1` [compound 191], more than 100 nM.
For the molecule `CCCNC(=O)c1cnc(N2CCN(C3CCN(Cc4ccc(Cl)cc4)CC3)CC2)c(Cl)c1` [compound 192], the IC50 is more than 100 nM.
With `N#Cc1ccc(C(=O)N2CCC(N3CCN(c4ncc(C(=O)NCC5CCCCC5)cc4Br)CC3)CC2)cc1` [compound 193] the figure was 25 to 100 nM.
To `O=C(NCC1CCCCC1)c1cnc(N2CCN(C3CCN(Cc4ccc(Cl)cc4)CC3)CC2)c(Br)c1` [compound 194] belongs 25 to 100 nM.
As for `COCCNC(=O)c1cnc(N2CCN(C3CCN(Cc4ccc(Cl)cc4)CC3)[C@@H](CC(C)C)C2)c(Cl)c1` [compound 195], the IC50 was more than 100 nM.
With `CC(C)C[C@H]1CN(c2ncc(C(=O)NC(C)C)cc2Cl)CCN1C1CCN(Cc2ccc(Cl)cc2)CC1` [compound 196] the figure was more than 100 nM.
To `CC(C)C[C@H]1CN(c2ncc(C(=O)NCC3CCCCC3)cc2Cl)CCN1C1CCN(Cc2ccc(Cl)cc2)CC1` [compound 197] belongs 25 to 100 nM; to `CNC(=O)c1cnc(N2CCN(C3CCN(Cc4ccc(Cl)cc4)CC3)[C@@H](CC(C)C)C2)c(Cl)c1` [compound 198], more than 100 nM; to `CC(C)C[C@H]1CN(c2ncc(C(=O)NCc3ccc(F)c(F)c3)cc2Cl)CCN1C1CCN(Cc2ccc(Cl)cc2)CC1` [compound 199], more than 100 nM.
To `Cc1cc(C(=O)NCc2ccc(F)c(F)c2)cnc1N1CCN(C2CCN(Cc3ccc(Cl)cc3)CC2)CC1` [compound 200] belongs more than 100 nM.
As to `Cc1cc(C(=O)NCc2ccc(Cl)c(Cl)c2)cnc1N1CCN(C2CCN(Cc3ccc(Cl)cc3)CC2)CC1` [compound 201], the IC50 was more than 100 nM.
